Laboratory results reported in a melting point compilation (Tetko et al.; mined from patent text by program, amines drawn as free bases though some values may be those of a salt).

Row | melting point [°C] | Structure (SMILES)
1 | 50 to 51 | CCCn1cnc2c1c(=O)n(CCCCCCOc1ccc(Cl)cc1)c(=O)n2C
2 | 216 to 218 | O=S(=O)(Cc1ccccc1)n1c2cc(O)c(O)cc2c2ccc(O)c(O)c21
3 | 109 to 112 | COc1cc(C=O)cc(C#N)c1OC
4 | 131 | CCOC(=O)C1(Br)Oc2cc(OC(C)=O)ccc2OC1Br (stereo not drawn)
5 | 72 to 74 | NS(=O)(=O)Oc1cccc(C(=O)c2ccccc2)c1
6 | 132 to 133 | CCc1noc(-c2cn(-c3ncc(Cl)cc3Cl)cn2)n1
7 | 89 to 90 | COC(=O)[C@@H](CC(C)C)NC(=O)c1ccc2c(c1)OCO2
8 | 135 to 137 | Nc1nc2c(Oc3ccccc3)cccc2s1
9 | 247 to 248 | Cc1ccc(S(=O)(=O)Nc2cccc3cc(C(=O)Nc4ccccc4)[nH]c23)cc1
10 | 251 to 254 | CCOc1cc2c(Nc3ccc(Sc4nccn4C)c(Cl)c3)c(C#N)cnc2cc1F
11 | 190 to 191 | CC(C)(C)OC(=O)N1CCN(c2ccc(S(=O)(=O)c3ccccc3)c([N+](=O)[O-])c2)CC1
12 | 195 | CCCC1=C(C#N)C(c2cccc3nsnc23)c2c[nH]nc2N1 (stereo not drawn)
13 | 63 to 64 | COc1ccc2cc(C(C)C(=O)OCc3ccc(OC(=O)OCCC(C)(C)C)cc3)ccc2c1 (stereo not drawn)
14 | 170 to 172 | COC(=O)c1[nH]c(C)c(C)c1O
15 | 141 to 143 | O=S1(=O)NCN(CCCCF)c2cc(Cl)c(Cl)cc21
16 | 104 | O=C(Cc1ccccc1)Nc1ccccc1C(F)(F)F
17 | 134 to 136 | CN(CCCC(C(N)=O)(c1ccccc1)c1ccccc1)CCc1ccccn1
18 | 147 | CC(=O)OC1CSC(Oc2cccnc2)C(OC(C)=O)C1OC(C)=O (stereo not drawn)
19 | 178 to 181 | CN(C)CCCNc1ccnc2cc3c(cc12)OCO3

Row | melting point [°C] | Structure (SMILES)
20 | 142 to 144 | NC(=O)c1ccnn1-c1ccc(Oc2ccccc2)cc1
21 | 98.5 to 99.5 | CC1(C)CC(=O)OC(C(Cl)(Cl)Cl)C1Br (stereo not drawn)
22 | 185 | N#Cc1ccccc1C=C1c2ccccc2CCc2ccccc21
23 | > 200 | Cc1nc(N2CCc3ccccc3CC2)c(C#N)c(=O)n1CC#N
24 | 80 to 82 | CN(C)C(=O)N(C)c1nnc(C(C)(C)CCl)s1
25 | 181 | COc1cc(N)c(I)cc1C(=O)O
26 | 222 to 224 | CN1C(=O)Cn2cc(C(=O)NCc3ccc(F)cc3)c(=O)c3cc(CN4CCOCC4)cc1c32
27 | 192 to 193 | CCc1cccc(CCC(O)c2ccccc2)c1NC(=O)CC1c2ccccc2Oc2ccccc21 (stereo not drawn)
28 | 192 to 195 | CC(c1oc2ccccc2c(=O)c1-c1cccc(F)c1)n1nc(-c2csc(C=O)c2)c2c(N)ncnc21 (stereo not drawn)
29 | 207 to 209 | Cc1cc(-c2nc3cccnn3c2-c2ccnc(NC(=O)c3ccc(Cl)cc3)c2)ccc1F
30 | 118 to 120 | COCCOCCn1cc(C(=O)NCc2ccc(Cl)cc2)c(=O)c2cc(CN(C)CC#N)ccc21
31 | 139 to 141 | COc1ccc(C(C)C)cc1-c1cc(C(=O)OCc2ccccc2)c(OCc2ccccc2)cc1OCc1ccccc1
32 | 203 to 205 | CN(C)Cc1ccc(CSCCNC2=NS(=O)(=O)N=C2NO)o1
33 | 66 to 68 | Cc1ccc(Nc2ccccc2NC(=O)CCCc2ccc(N=C(N)c3cccs3)cc2)cc1
34 | 136 to 139 | CCCc1c(OCCCCCCc2ccc(C(=O)CCCC(=O)O)cc2CCC(=O)O)ccc2c1OCCC2=O
35 | 130 to 132 | CC1(CN2CCN(C(=O)OCc3ccccc3)CC2)Cn2cc([N+](=O)[O-])nc2O1 (stereo not drawn)
36 | 54 to 59 | CC(C)(C)OC(=O)NCCC[C@H](NC(=O)OC(C)(C)C)C(=O)NCCCC(c1ccc(F)cc1)c1ccc(F)cc1
37 | 205 to 210 | C[C@H](c1ccccc1)n1c(=O)[nH]c2cc(Cl)cc(Cl)c2c1=O
38 | 159 | O=C(CCCCCCNS(=O)(=O)c1ccc(C(=O)Nc2ccc(Cl)c(-c3ccccn3)c2)c(Cl)c1)NO
